Values quoted from earlier work, collected in PMC13167888 (Cancer Chemotherapy and Pharmacology, 2026).

Experiments:
[1] = bosutinib
BCRP = target: T1, BCRP (Homo sapiens, UniProt Q9UNQ0)
T1 sequence (Q9UNQ0 1-655): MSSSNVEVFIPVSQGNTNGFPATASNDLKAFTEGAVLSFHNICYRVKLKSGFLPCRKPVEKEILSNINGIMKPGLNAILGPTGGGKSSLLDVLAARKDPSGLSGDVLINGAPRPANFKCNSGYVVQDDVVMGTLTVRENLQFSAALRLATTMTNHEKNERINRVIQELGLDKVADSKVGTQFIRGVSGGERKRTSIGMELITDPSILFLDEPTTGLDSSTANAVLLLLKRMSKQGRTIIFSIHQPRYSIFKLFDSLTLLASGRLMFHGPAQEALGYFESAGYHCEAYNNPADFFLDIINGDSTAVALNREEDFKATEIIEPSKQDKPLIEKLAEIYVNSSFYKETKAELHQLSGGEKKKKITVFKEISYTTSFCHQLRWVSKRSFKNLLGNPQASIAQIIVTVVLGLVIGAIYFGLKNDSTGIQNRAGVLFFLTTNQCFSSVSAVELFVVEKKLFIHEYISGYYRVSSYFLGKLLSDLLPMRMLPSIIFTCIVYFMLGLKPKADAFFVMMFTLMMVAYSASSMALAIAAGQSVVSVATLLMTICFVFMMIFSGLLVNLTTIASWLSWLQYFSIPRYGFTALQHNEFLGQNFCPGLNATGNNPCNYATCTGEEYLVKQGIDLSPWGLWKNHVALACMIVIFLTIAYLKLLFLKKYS

| SMILES | Plasma protein binding [1] | IC50 (BCRP) [µM] |
| --- | --- | --- |
| COc1cc(Nc2c(C#N)cnc3cc(OCCCN4CCN(C)CC4)c(OC)cc23)c(Cl)cc1Cl [bosutinib] | 94% [37] |  |
| CC(C)/N=c1\cc2n(-c3ccc(Cl)cc3)c3ccccc3nc-2cc1Nc1ccc(Cl)cc1 [clofazimine] |  | 3.2 |
